Results: US20250283887A1, “FLUORESCENT-PROBE SOLUTION” (GORYO CHEMICAL, INC., priority 2022, published 2025)

What was measured:
[1] = Storage stability of fluorescent-probe solutions of Test Examples 1 to 11 in sealed glass vials (HPLC purity); assay type: physicochemical
Protocol: A 25 mL glass vial (manufactured by Daiwa Special Glass Co., Ltd.) was filled with 0.125 mL to 0.312 mL of the fluorescent-probe solution obtained in each of Test Examples 1 to 11, and the opening of the glass vial was plugged with a rubber stopper (No. 20-T manufactured by Maruemu Corporation), and then tightly sealed with an aluminum cap over the rubber stopper. The vial filled with each of the fluorescent-probe solutions was stored at 25° C. or 50° C. in the dark for from 25 days to 32 days.
The purity of HMRef-αMan in each of the fluorescent-probe solutions within 12 hours after preparation, and that in each of the fluorescent-probe solutions after storage for from 25 days to 32 days in the vials were measured as described below, and the difference between the purities (the former−the latter) was divided by the number of storage days. Thus, the reduction amount of the purity per day was calculated. In addition, the reduction amount of the purity (converted value) in storage (3 years) at room temperature or in storage (1 year) at 50° C. was calculated from the reduction amount of the purity per day. All the purities of HMRef-αMan within 12 hours after the preparation of the fluorescent-probe solutions obtained in Test Examples 1 to 11 were 99% or more.
HPLC analysis was performed under the following conditions through use of a liquid chromatography system (UltiMate 3000, Thermo Fisher Scientific Inc.), and the ratio of the peak area of HMRef-αMan with respect to the entire peak area was calculated as a purity. • Column: Meteoric core C8, 5 μm, 4.6×150 mm (YMC Co., Ltd.) • Column temperature: 25° C. • Mobile phase A: water/TFA (1,000:1) • Mobile phase B: acetonitrile/TFA (1,000:1) • Liquid-feeding amount: 1.0 mL/min. • Wavelength: 254 nm • Liquid feeding to mobile phase: The liquid was fed under the conditions shown in the following table. […]

[2] = Storage stability of Tween 80-containing fluorescent-probe solutions of Test Examples 13 to 15 in sealed glass vials (HPLC purity); assay type: physicochemical; settings: vial stored at 25°C in the dark for 85 days; converted to 3 years (FIG. 4); DMSO 10-50 v/v % with Tween 80
Protocol: HPLC analysis was performed under the following conditions through use of a liquid chromatography system (UltiMate 3000, Thermo Fisher Scientific Inc.), and the ratio of the peak area of HMRef-αMan with respect to the entire peak area was calculated as a purity. • Column: Meteoric core C8, 5 μm, 4.6×150 mm (YMC Co., Ltd.) • Column temperature: 25° C. • Mobile phase A: water/TFA (1,000:1) • Mobile phase B: acetonitrile/TFA (1,000:1) • Liquid-feeding amount: 1.0 mL/min. • Wavelength: 254 nm • Liquid feeding to mobile phase: The liquid was fed under the conditions shown in the following table.
A glass vial was filled with the fluorescent-probe solution obtained in each of Test Examples 13 to 15, and sealed with a rubber stopper. The vial filled with each of the fluorescent-probe solutions was stored at 25° C. in the dark for 85 days, and analysis was performed by liquid chromatography.
In the same manner as in Test Examples 1 to 11, the purity of HMRef-αMan and the content of the oxidized form thereof in each of the fluorescent-probe solutions within 12 hours after preparation, and those in each of the fluorescent-probe solutions after storage for 85 days in the vials were measured, and the reduction amount of the purity and the increase amount of the oxidized form in 3 years were calculated as converted values. […]

**Q.** For OC[C@H]1O[C@H](Cc2ccc3c(c2)Oc2cc(NCC(F)(F)F)ccc2C32OCc3ccccc32)[C@@H](O)[C@@H](O)[C@@H]1O (stereo partly shown) [HMRef-αMan], which “main analog observed after storage (mass spectrometry of resolved HPLC peak)” value ([1]; after storage for 25 to 32 days in the vials) is on record?
**A.** an analog (oxidized form) in which two hydrogen atoms were lost from HMRef-αMan was observed as a main analog

**Q.** And the stability during storage ([1]; presence of water in the solvent, FIG. 1 and FIG. 2)?
**A.** improved

**Q.** And the “reduction in purity of HMRef-αMan during storage” value ([1]; vial stored at 25°C or 50°C in the dark for 25 to 32 days, converted to 3 years at room temperature / 1 year at 50°C (FIG. 1, FIG. 2), DMSO/water with or without phosphate)?
**A.** suppressed by the presence of water in the solvent

**Q.** What about the “reduction in purity of HMRef-αMan during storage” value [2] of the same compound?
**A.** suppressed even when the content of the organic solvent is reduced by adding the solubilizer
